ChEMBL document CHEMBL4602602, “Structure-activity relationship (SAR) studies of synthetic glycogen synthase kinase-3β inhibitors: A critical review” (Eur J Med Chem, 2019)

Molecular target: T1, Glycogen synthase kinase-3 beta (Homo sapiens, UniProt P49841)
Experiment: Inhibition of Glycogen synthase kinase-3 beta (unknown origin) after 30 mins by Kinase-Glo assay
Settings: not given

T1 sequence (P49841 whole entry): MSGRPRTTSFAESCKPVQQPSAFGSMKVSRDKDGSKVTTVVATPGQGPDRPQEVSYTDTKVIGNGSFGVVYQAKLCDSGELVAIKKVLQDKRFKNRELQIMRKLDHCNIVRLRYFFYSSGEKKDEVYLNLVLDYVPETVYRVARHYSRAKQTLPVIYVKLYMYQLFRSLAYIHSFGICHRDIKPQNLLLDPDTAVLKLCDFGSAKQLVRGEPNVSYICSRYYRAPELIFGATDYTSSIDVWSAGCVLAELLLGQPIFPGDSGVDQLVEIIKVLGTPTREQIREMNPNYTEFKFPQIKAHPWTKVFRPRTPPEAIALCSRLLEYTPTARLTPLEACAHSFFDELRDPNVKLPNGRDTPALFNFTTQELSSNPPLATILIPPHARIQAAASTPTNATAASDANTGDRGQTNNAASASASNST

Row | IC50 [nM] | Compound
1 | 1310 | COc1ccccc1-n1cc(CSC2=NC(c3ccccc3)CC(=O)N2C)nn1 (stereo not given)
2 | 122 | CN1C(=O)CC(c2ccccc2)N=C1SCc1cn(-c2ccccc2F)nn1 (stereo not given)
3 | 1340 | CN1C(=O)CC(c2ccccc2)N=C1SCc1cn(-c2ccc(C(C)(C)C)cc2)nn1 (stereo not given)
4 | 153 | CN1C(=O)CC(c2ccccc2)N=C1SCc1cn(-c2cccc([N+](=O)[O-])c2)nn1 (stereo not given)
5 | 82 | Cc1ccc(-n2cc(CSC3=NC(c4ccccc4)CC(=O)N3C)nn2)cc1C (stereo not given)
6 | 94 | CCc1ccc(-n2cc(CSC3=NC(c4ccccc4)CC(=O)N3C)nn2)cc1 (stereo not given)
7 | 916 | CN1C(=O)CC(c2ccccc2)N=C1SCc1cn(-c2ccccc2)nn1 (stereo not given)

System: HEK293
Experiment: Activation of GSK-3 in HEK293 cells assessed as induction in beta-catenin-LEF/TCF regulated reporter gene transcription at 5 uM relative to control
Format: cell-based
Settings: Homo sapiens

Row | Compound | fold change (FC)
8 | Cn1cc(C2=C(c3ccc(Cl)cc3Cl)C(=O)NC2=O)c2ccccc21 [SB-216763] | 2.5

Molecular target: not listed separately
Experiment: Inhibition of full length recombinant His-tagged human Glycogen synthase kinase-3 beta expressed in Baculovirus expression system
Settings: not given

Row | IC50 [nM] | Compound
9 | 140 | CN(C)CCCn1cc(C2=C(c3cccc4ccccc34)C(=O)NC2=O)c2cccnc21
10 | 4 | COc1ccccc1C1=C(c2cn(CCCO)c3ncccc23)C(=O)NC1=O
11 | 10 | O=C1NC(=O)C(c2cn(CCCO)c3ncccc23)=C1c1ccccc1Cl
12 | 14 | O=C1NC(=O)C(c2cn(CCCO)c3ncccc23)=C1c1ccccc1C(F)(F)F

Molecular target: T1, Glycogen synthase kinase-3 beta
Experiment: Inhibition of full length recombinant His-tagged human Glycogen synthase kinase-3 beta expressed in Baculovirus expression system
Settings: not given

Row | IC50 [nM] | Compound
13 | 31 | NCCCn1cc(C2=C(c3cccc4ccccc34)C(=O)NC2=O)c2cccnc21

System: not listed separately
Experiment: Activation of GSK-3 in HEK293 cells assessed as induction in beta-catenin-LEF/TCF regulated reporter gene transcription
Format: cell-based
Settings: Homo sapiens

Row | EC50 [nM] | Compound
14 | 3600 | Cn1cc(C2=C(c3ccc(Cl)cc3Cl)C(=O)NC2=O)c2ccccc21 [SB-216763]

Molecular target: T1, Glycogen synthase kinase-3 beta
Experiment: Inhibition of Glycogen synthase kinase-3 beta (unknown origin)
Settings: not given

Row | Compound | IC50 [nM]
15 | COc1ccc(C2=C(Nc3ccc(C(=O)Nc4ccccc4)cc3)C(=O)NC2=O)cc1 | 170
16 | C=CC(=O)Nc1cccc(C2=C(c3cn(C)c4cc(OC)ccc34)C(=O)NC2=O)c1 | 690
17 | COc1ccc(NC(=O)c2ccc(NC3=C(c4ccccc4)C(=O)NC3=O)cc2)cc1 | 120
18 | COc1ccc(C2=C(Nc3ccc(C(=O)Nc4ccc(Cl)cc4)cc3)C(=O)NC2=O)cc1 | 190
19 | COc1ccc(NC(=O)c2ccc(NC3=C(c4ccc(OC)cc4)C(=O)NC3=O)cc2)cc1 | 90
20 | O=C(CSc1nnc(Cn2c(C(F)(F)F)nc3ccccc32)o1)Nc1ccc(F)cc1 | 200
21 | CC(C)n1cc(C2=C(c3cccc(NC(=O)CF)c3)C(=O)NC2=O)c2cccnc21 | 17
22 | C=CC(=O)Nc1cccc(C2=C(c3cn(C(C)C)c4ncccc34)C(=O)NC2=O)c1 | 34
23 | C=CC(=O)Nc1cccc(C2=C(c3cn(C)c4ccc(F)cc34)C(=O)NC2=O)c1 | 150
24 | COc1ccc(/C=C/C(O)=C/C(=O)/C=C/c2ccc(OCc3ccccc3)cc2)cc1OC | 900
25 | C=CC(=O)Nc1cccc(C2=C(c3cn(C)c4cc(F)ccc34)C(=O)NC2=O)c1 | 199

The next lines start with the values.

Row | IC50 [nM] | Compound
26 | 390 | CCc1ccc(-n2cc(CSc3nnc(Cn4c(C(F)(F)F)nc5ccccc54)o3)nn2)cc1
27 | 320 | FC(F)(F)c1nc2ccccc2n1Cc1nnc(SCc2cn(-c3ccccc3)nn2)o1
28 | 640 | Cc1ccc2[nH]nc(C(=O)NCC3CCN(C(=O)Nc4ccccc4)CC3)c2c1
29 | 150 | FC(F)(F)c1nc2ccccc2n1Cc1nnc(SCc2cn(-c3cccnc3)nn2)o1
30 | 130 | O=C(CSc1nnc(Cn2c(C(F)(F)F)nc3ccccc32)o1)Nc1ccccc1
31 | 270 | Fc1ccccc1-n1cc(CSc2nnc(Cn3c(C(F)(F)F)nc4ccccc43)o2)nn1

Molecular target: T1, Glycogen synthase kinase-3 beta
Experiment: Inhibition of Glycogen synthase kinase-3 beta in human SH-SY5Y cells after 2 hrs by ELISA
Format: cell-based
Settings: not given

Row | IC50 [nM] | Compound
32 | 2300 | COc1ccc(-c2cc(=O)c3c(OC)c([C@H]4O[C@H](C(=O)N[C@H](C)C(F)(F)F)[C@@H](O)[C@H](O)[C@H]4O)c(OC)cc3o2)cc1OC
33 | 237000 | COc1ccc(-c2cc(=O)c3c(OC)c([C@H]4O[C@H](C(=O)O)[C@@H](O)[C@H](O)[C@H]4O)c(OC)cc3o2)cc1OC
34 | 239000 | COc1ccc(-c2cc(=O)c3c(OC)c([C@H]4O[C@H](CO)[C@@H](O)[C@H](O)[C@H]4O)c(OC)cc3o2)cc1OC
35 | 590 | COc1ccc(-c2cc(=O)c3c(OC)c([C@H]4O[C@H](C(=O)N[C@@H](C)C(F)(F)F)[C@@H](O)[C@H](O)[C@H]4O)c(OC)cc3o2)cc1OC
